Source: the NIST ThermoML archive (doi:10.1016/j.fluid.2012.03.025)
Numbers after ± are expanded uncertainties.

What was measured:
[1] = xn = mol fraction of the nth substance listed; conditions: 298.15 K, 101 kPa, Liquid, Vibrating tube method
[2] = refractive index (Na D-line) (dimensionless); xn = mol fraction of the nth substance listed; conditions: 298.15 K, 101 kPa, Liquid, Standard Abbe refractometry
[3] = Crystal

`CCCCCCC(C)O` (stereo unspecified) [2-octanol] + CCCCCCCCCCCCN(CCCCCCCCCCCC)CCCCCCCCCCCC showed a mass density ([1]; x2 = 0) of 816.49 ± 0.11 kg/m3 and a refractive index ([2]; x2 = 0) of 1.4244 ± 0.0004.

In the case of `CCCCCCC(C)O` (stereo unspecified) [2-octanol] + CCCCCCCCCCO, the mass density ([1]; x1 = 0.0505) is reported as 826.1 ± 0.1 kg/m3, the mass density ([1]; x1 = 0.1001) is reported as 825.65 ± 0.1 kg/m3 and the mass density ([1]; x1 = 0.1998) is reported as 824.82 ± 0.1 kg/m3. For the same compound, the mass density ([1]; x1 = 0.2999) was 824.02 ± 0.1 kg/m3, the mass density ([1]; x1 = 0.4006) was 823.14 ± 0.1 kg/m3 and the mass density ([1]; x1 = 0.5001) was 822.18 ± 0.1 kg/m3. For the same compound, the mass density ([1]; x1 = 0.6) was 821.17 ± 0.1 kg/m3, the mass density ([1]; x1 = 0.6999) was 820.13 ± 0.1 kg/m3 and the mass density ([1]; x1 = 0.7995) was 819.04 ± 0.11 kg/m3. It also gave a mass density ([1]; x1 = 0.8998) of 817.86 ± 0.11 kg/m3, a mass density ([1]; x1 = 0.95) of 817.21 ± 0.11 kg/m3 and a mass density ([1]; x1 = 1) of 816.49 ± 0.11 kg/m3. It also gave a refractive index ([2]; x1 = 0.0505) of 1.4349 ± 0.0004, a refractive index ([2]; x1 = 0.1001) of 1.4344 ± 0.0004 and a refractive index ([2]; x1 = 0.1998) of 1.4334 ± 0.0004. It also gave a refractive index ([2]; x1 = 0.2999) of 1.4325 ± 0.0004, a refractive index ([2]; x1 = 0.4006) of 1.4315 ± 0.0004 and a refractive index ([2]; x1 = 0.5001) of 1.4304 ± 0.0004. The refractive index ([2]; x1 = 0.6) was 1.4293 ± 0.0004, the refractive index ([2]; x1 = 0.6999) was 1.4281 ± 0.0004 and the refractive index ([2]; x1 = 0.7995) was 1.427 ± 0.0004. For the same compound, the refractive index ([2]; x1 = 0.8998) was 1.4257 ± 0.0004, the refractive index ([2]; x1 = 0.95) was 1.4251 ± 0.0004 and the refractive index ([2]; x1 = 1) was 1.4244 ± 0.0004.

Compound `CCCCCCC(C)O` (stereo unspecified) [2-octanol] + CCCCCCCCO has a mass density ([1]; x2 = 0) of 816.49 ± 0.11 kg/m3, a mass density ([1]; x2 = 0.0403) of 816.8 ± 0.11 kg/m3 and a mass density ([1]; x2 = 0.0812) of 817.11 ± 0.11 kg/m3. For the same compound, the mass density ([1]; x2 = 0.1657) was 817.65 ± 0.11 kg/m3, the mass density ([1]; x2 = 0.2539) was 818.13 ± 0.11 kg/m3 and the mass density ([1]; x2 = 0.3458) was 818.63 ± 0.11 kg/m3. The mass density ([1]; x2 = 0.4421) was 819.16 ± 0.11 kg/m3, the mass density ([1]; x2 = 0.5431) was 819.71 ± 0.1 kg/m3 and the mass density ([1]; x2 = 0.649) was 820.28 ± 0.1 kg/m3. For the same compound, the mass density ([1]; x2 = 0.7603) was 820.85 ± 0.1 kg/m3, the mass density ([1]; x2 = 0.8771) was 821.36 ± 0.1 kg/m3 and the mass density ([1]; x2 = 0.9375) was 821.61 ± 0.1 kg/m3. For the same compound, the refractive index ([2]; x2 = 0) was 1.4243 ± 0.0004, the refractive index ([2]; x2 = 0.0403) was 1.4246 ± 0.0004 and the refractive index ([2]; x2 = 0.0812) was 1.4247 ± 0.0004. It also gave a refractive index ([2]; x2 = 0.1657) of 1.425 ± 0.0004, a refractive index ([2]; x2 = 0.2539) of 1.4253 ± 0.0004 and a refractive index ([2]; x2 = 0.3458) of 1.4255 ± 0.0004. For the same compound, the refractive index ([2]; x2 = 0.4421) was 1.4259 ± 0.0004, the refractive index ([2]; x2 = 0.5431) was 1.4262 ± 0.0004 and the refractive index ([2]; x2 = 0.649) was 1.4265 ± 0.0004. It also gave a refractive index ([2]; x2 = 0.7603) of 1.4268 ± 0.0004, a refractive index ([2]; x2 = 0.8771) of 1.4272 ± 0.0004 and a refractive index ([2]; x2 = 0.9375) of 1.4273 ± 0.0004.

For `CCCCCCCCCCO` [decan-1-ol] + CCCCCCC(C)O, the mass density ([1]; x2 = 0) was 826.59 ± 0.1 kg/m3 and the refractive index ([2]; x2 = 0) was 1.4354 ± 0.0004.

For `CCCCCCCCCCO` [decan-1-ol] + CCCCCCCCCCCCN(CCCCCCCCCCCC)CCCCCCCCCCCC, the mass density ([1]; x2 = 0) was 826.59 ± 0.1 kg/m3 and the refractive index ([2]; x2 = 0) was 1.4354 ± 0.0004.

`CCCCCCCCO` [octan-1-ol] + CCCCCCC(C)O gave a mass density ([1]; x1 = 1) of 821.76 ± 0.1 kg/m3 and a refractive index ([2]; x1 = 1) of 1.4275 ± 0.0004.

For `CCCCCCCCO` [octan-1-ol] + CCCCCCCCCCCCN(CCCCCCCCCCCC)CCCCCCCCCCCC, the mass density ([1]; x2 = 0) was 821.76 ± 0.1 kg/m3 and the refractive index ([2]; x2 = 0) was 1.4275 ± 0.0004.

Compound `CCCCCCCCCCCCN(CCCCCCCCCCCC)CCCCCCCCCCCC` [tridodecylamine] has a Normal melting temperature [3] of 16.1 ± 0.4 °C.

`CCCCCCCCCCCCN(CCCCCCCCCCCC)CCCCCCCCCCCC` [tridodecylamine] + CCCCCCC(C)O gave a mass density ([1]; x1 = 0.0526) of 816.69 ± 0.11 kg/m3, a mass density ([1]; x1 = 0.1042) of 816.97 ± 0.11 kg/m3 and a mass density ([1]; x1 = 0.2072) of 817.55 ± 0.11 kg/m3. It also gave a mass density ([1]; x1 = 0.31) of 818.03 ± 0.11 kg/m3, a mass density ([1]; x1 = 0.4111) of 818.41 ± 0.11 kg/m3 and a mass density ([1]; x1 = 0.5114) of 818.68 ± 0.11 kg/m3. The mass density ([1]; x1 = 0.6109) was 818.88 ± 0.11 kg/m3, the mass density ([1]; x1 = 0.7083) was 819.04 ± 0.11 kg/m3 and the mass density ([1]; x1 = 0.805) was 819.15 ± 0.11 kg/m3. The mass density ([1]; x1 = 0.9037) was 819.22 ± 0.11 kg/m3, the mass density ([1]; x1 = 0.9524) was 819.24 ± 0.11 kg/m3 and the mass density ([1]; x1 = 1) was 819.23 ± 0.11 kg/m3. The refractive index ([2]; x1 = 0.0526) was 1.4296 ± 0.0004, the refractive index ([2]; x1 = 0.1042) was 1.4336 ± 0.0004 and the refractive index ([2]; x1 = 0.2072) was 1.4396 ± 0.0004. The refractive index ([2]; x1 = 0.31) was 1.4436 ± 0.0004, the refractive index ([2]; x1 = 0.4111) was 1.4465 ± 0.0004 and the refractive index ([2]; x1 = 0.5114) was 1.4486 ± 0.0004. For the same compound, the refractive index ([2]; x1 = 0.6109) was 1.4503 ± 0.0004, the refractive index ([2]; x1 = 0.7083) was 1.4516 ± 0.0004 and the refractive index ([2]; x1 = 0.805) was 1.4528 ± 0.0004. The refractive index ([2]; x1 = 0.9037) was 1.4537 ± 0.0004, the refractive index ([2]; x1 = 0.9524) was 1.4541 ± 0.0004 and the refractive index ([2]; x1 = 1) was 1.4546 ± 0.0004.

Work on `CCCCCCCCCCCCN(CCCCCCCCCCCC)CCCCCCCCCCCC` [tridodecylamine] + CCCCCCCCCCO yielded a mass density ([1]; x1 = 0.0522) of 825.92 ± 0.1 kg/m3, a mass density ([1]; x1 = 0.104) of 825.24 ± 0.1 kg/m3 and a mass density ([1]; x1 = 0.2071) of 824.17 ± 0.1 kg/m3. For the same compound, the mass density ([1]; x1 = 0.3096) was 823.37 ± 0.1 kg/m3, the mass density ([1]; x1 = 0.4117) was 822.57 ± 0.1 kg/m3 and the mass density ([1]; x1 = 0.5112) was 821.93 ± 0.1 kg/m3. The mass density ([1]; x1 = 0.6117) was 821.35 ± 0.1 kg/m3, the mass density ([1]; x1 = 0.7097) was 820.82 ± 0.1 kg/m3 and the mass density ([1]; x1 = 0.8078) was 820.35 ± 0.1 kg/m3. For the same compound, the mass density ([1]; x1 = 0.9041) was 819.86 ± 0.1 kg/m3, the mass density ([1]; x1 = 0.9534) was 819.53 ± 0.1 kg/m3 and the mass density ([1]; x1 = 1) was 819.23 ± 0.11 kg/m3. For the same compound, the refractive index ([2]; x1 = 0.0522) was 1.4385 ± 0.0004, the refractive index ([2]; x1 = 0.104) was 1.4409 ± 0.0004 and the refractive index ([2]; x1 = 0.2071) was 1.4448 ± 0.0004. The refractive index ([2]; x1 = 0.3096) was 1.447 ± 0.0004, the refractive index ([2]; x1 = 0.4117) was 1.4493 ± 0.0004 and the refractive index ([2]; x1 = 0.5112) was 1.4506 ± 0.0004. The refractive index ([2]; x1 = 0.6117) was 1.4519 ± 0.0004, the refractive index ([2]; x1 = 0.7097) was 1.4528 ± 0.0004 and the refractive index ([2]; x1 = 0.8078) was 1.4535 ± 0.0004. For the same compound, the refractive index ([2]; x1 = 0.9041) was 1.4541 ± 0.0004, the refractive index ([2]; x1 = 0.9534) was 1.4544 ± 0.0004 and the refractive index ([2]; x1 = 1) was 1.4546 ± 0.0004.

`CCCCCCCCCCCCN(CCCCCCCCCCCC)CCCCCCCCCCCC` [tridodecylamine] + CCCCCCCCO showed a mass density ([1]; x1 = 0.0652) of 821.91 ± 0.1 kg/m3, a mass density ([1]; x1 = 0.1282) of 821.75 ± 0.1 kg/m3 and a mass density ([1]; x1 = 0.2477) of 821.37 ± 0.1 kg/m3. The mass density ([1]; x1 = 0.3616) was 820.95 ± 0.1 kg/m3, the mass density ([1]; x1 = 0.469) was 820.67 ± 0.1 kg/m3 and the mass density ([1]; x1 = 0.5695) was 820.41 ± 0.1 kg/m3. For the same compound, the mass density ([1]; x1 = 0.6684) was 820.15 ± 0.1 kg/m3, the mass density ([1]; x1 = 0.7531) was 819.94 ± 0.1 kg/m3 and the mass density ([1]; x1 = 0.8438) was 819.65 ± 0.1 kg/m3. The mass density ([1]; x1 = 0.9238) was 819.4 ± 0.1 kg/m3, the mass density ([1]; x1 = 0.9643) was 819.29 ± 0.1 kg/m3 and the mass density ([1]; x1 = 1) was 819.23 ± 0.11 kg/m3. The refractive index ([2]; x1 = 0.0652) was 1.4337 ± 0.0004, the refractive index ([2]; x1 = 0.1282) was 1.438 ± 0.0004 and the refractive index ([2]; x1 = 0.2477) was 1.4434 ± 0.0004. It also gave a refractive index ([2]; x1 = 0.3616) of 1.4468 ± 0.0004, a refractive index ([2]; x1 = 0.469) of 1.4491 ± 0.0004 and a refractive index ([2]; x1 = 0.5695) of 1.4506 ± 0.0004. For the same compound, the refractive index ([2]; x1 = 0.6684) was 1.4519 ± 0.0004, the refractive index ([2]; x1 = 0.7531) was 1.4528 ± 0.0004 and the refractive index ([2]; x1 = 0.8438) was 1.4535 ± 0.0004. The refractive index ([2]; x1 = 0.9238) was 1.4541 ± 0.0004, the refractive index ([2]; x1 = 0.9643) was 1.4544 ± 0.0004 and the refractive index ([2]; x1 = 1) was 1.4546 ± 0.0004.
